Data on five compounds can be found in PubChem BioAssay (NCI).

Molecules are shown by their SMILES.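 1) Cells in 96-well plates. 2) Compound, 48 h, 5 concentrations. 3) Linear interpolation between surrounding doses. 4) Unreached endpoint = highest concentration. TGI is the concentration that stops growth completely.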

Among the test systems are NCI-H460 lung; OVCAR-4 ovarian; 786-0 renal; SK-OV-3 ovarian; SF-268 CNS; SW-620 colon; COLO 205 colon; MOLT-4 leukemia; SF-295 CNS; NCI-H522 lung; EKVX NSCLC; NCI/ADR-RES ovarian; KM12 colon; IGROV1 ovarian; UO-31 renal; UACC-62 melanoma; HL-60(TB) leukemia; HCT-15 colon.
Common to all, as to assay: NCI tumour cell line growth inhibition, 48 h

As for `CC(=O)OCC(OC(C)=O)C1C[C@H]2O[C@@H]3[C@H](C[C@H]2O1)O[C@@]1(C[C@@H]3C)C[C@H](C)[C@@H]2O[C@]3(C[C@@H]2O1)C[C@H]1O[C@H]2[C@H](C)[C@H]4OC(=O)CC5CC[C@H]6OC7[C@H]8O[C@]9(CC[C@H]%10CC(O)(CO)[C@H](CC[C@H]%11C[C@@H](C)C(O)(CO)C(C[C@@H]4O[C@H]2C[C@H]1O3)O%11)O%10)CC8O[C@@H]7[C@@H](O9)[C@H]6O5` (some centres undefined), the TGI in the assay on NCI-H460 lung, in the assay on OVCAR-4 ovarian, with 786-0 renal, in the assay on SK-OV-3 ovarian, with SF-268 CNS and with SW-620 colon was greater than 1 µM throughout. The TGI in the assay on COLO 205 colon was 0.0696 µM; in the assay on MOLT-4 leukemia, greater than 1 µM; with SF-295 CNS, greater than 0.301 µM; with NCI-H522 lung, 0.00451 µM; with EKVX NSCLC, greater than 1 µM; in the assay with NCI/ADR-RES ovarian it was greater than 0.205 µM. Moreover, the TGI is greater than 0.333 µM in the assay on KM12 colon, greater than 1 µM with IGROV1 ovarian, greater than 1 µM with UO-31 renal and greater than 1 µM in the assay on UACC-62 melanoma.
Regarding `COc1ccc2cc(NC(=O)N/N=C\c3ccc(Cl)cc3)ccc2c1`, the TGI in the assay on NCI-H460 lung, in the assay on OVCAR-4 ovarian, in the assay with 786-0 renal, with SK-OV-3 ovarian, with SF-268 CNS and in the assay on SW-620 colon was greater than 100 µM in each case. The TGI in the assay on COLO 205 colon, in the assay on MOLT-4 leukemia, in the assay with HL-60(TB) leukemia, with SF-295 CNS, in the assay on NCI-H522 lung and in the assay on HCT-15 colon was greater than 100 µM throughout. Moreover, the TGI in the assay on EKVX NSCLC, in the assay with NCI/ADR-RES ovarian, with KM12 colon, in the assay with IGROV1 ovarian, in the assay on UO-31 renal and with UACC-62 melanoma was greater than 100 µM each time.
Take `CSc1nc2c(c(=O)n1C)N=C(c1ccccc1)[C@H](C(CC(=O)c1ccccc1)c1ccccc1)C(c1ccccc1)N2` (some centres undefined): the TGI with NCI-H460 lung, with OVCAR-4 ovarian, in the assay on 786-0 renal, with SW-620 colon, with COLO 205 colon and in the assay with MOLT-4 leukemia was greater than 100 µM throughout. Further, the TGI in the assay on HL-60(TB) leukemia, in the assay on SF-295 CNS, in the assay on NCI-H522 lung, in the assay on HCT-15 colon, in the assay with EKVX NSCLC and in the assay on NCI/ADR-RES ovarian was greater than 100 µM each time. Further, the TGI in the assay with KM12 colon, in the assay on IGROV1 ovarian, in the assay with UO-31 renal and with UACC-62 melanoma was greater than 100 µM in each case.
Turning to `O=C1C=C(c2ccccc2)O/C1=C/C(=O)c1ccc(Cl)cc1`, the TGI is 41.5 µM in the assay with NCI-H460 lung; 32.9 µM in the assay with OVCAR-4 ovarian; 29.9 µM in the assay with 786-0 renal; greater than 100 µM with SK-OV-3 ovarian; 54.6 µM in the assay on SF-268 CNS; 27.1 µM in the assay on SW-620 colon. Besides, the TGI in the assay with COLO 205 colon is 30.1 µM; in the assay on MOLT-4 leukemia, greater than 100 µM; with HL-60(TB) leukemia it was 5.38 µM; in the assay with NCI-H522 lung, 27.7 µM; with HCT-15 colon, 39.5 µM; with EKVX NSCLC, greater than 100 µM. Further, the TGI came out at 50 µM in the assay with NCI/ADR-RES ovarian; 36.7 µM in the assay with KM12 colon; 35.9 µM in the assay with IGROV1 ovarian; 38.9 µM in the assay with UO-31 renal; 28.5 µM with UACC-62 melanoma.
Take `CCNC(=O)C1CCCN1C(=O)C(CCCN=C(N)N)NC(=O)C(CC(C)C)NC(=O)C(Cc1c[nH]c2ccccc12)NC(=O)C(Cc1ccc(O)cc1)NC(=O)C(CO)NC(=O)C(Cc1c[nH]c2ccccc12)NC(=O)C(Cc1cnc[nH]1)NC(=O)C1CCC(=O)N1` (centres undefined): the TGI with NCI-H460 lung, in the assay on OVCAR-4 ovarian, in the assay on 786-0 renal, with SK-OV-3 ovarian, with SF-268 CNS and in the assay with SW-620 colon was greater than 100 µM in each case. Also, the TGI with COLO 205 colon, in the assay on MOLT-4 leukemia, in the assay on SF-295 CNS, in the assay with NCI-H522 lung, in the assay on HCT-15 colon and with EKVX NSCLC was greater than 100 µM each time. Moreover, the TGI in the assay with NCI/ADR-RES ovarian, in the assay with KM12 colon, in the assay on IGROV1 ovarian, in the assay with UO-31 renal and with UACC-62 melanoma was greater than 100 µM each time.
